Earlier results as cited in patent publication US20250090693A1, “BIOCOMPATIBLE COMPOSITION FOR LABELING TARGET LESION, AND PREPARATION METHOD THEREFOR” (NATIONAL CANCER CENTER, priority 2022, published 2025).

- time after injection until decomposed and disappearing or excreted through urine and feces (injected into the human body): about an hour
Compound: CC1(C)C(/C=C/C=C/C=C/C=C2\N(CCCCS(=O)(=O)O)c3ccc4ccccc4c3C2(C)C)=[N+](CCCCS(=O)(=O)[O-])c2ccc3ccccc3c21 [indocyanine green (ICG), indocyanine green]
- clinical safety (18 breast cancer patients (T. Kitai, et al., Breast Cancer, 12:211-215, 2005)): safely used clinically
